The test system of series [1] is reserpine-induced blepharospasm. Nature of the series: Reserpine antagonism (blepharospasm). The settings on record: mice, IP, 1/10 of LD50, 30 min before reserpine 5 mg/kg IP; class symbols. The series is classed as in vivo, Male, Swiss strain mice. As to the method: 3. Reserpine antagonism (blepharospasm) (Chen G., and Bohner B., (1961) J. Pharmacol. Exptl. Therap. 131, 179).
Reserpine administered to mice in a dosage of 5 mg/kg intraperitoneally subsequently causes the eyelids to drop more or less completely in the majority of the animals. The administration of certain products inhibits the blepharospasm produced by reserpine.
Male, Swiss strain mice are distributed into groups of 10 and each experiment comprises at least 3 groups:
a control group that receives only the solvent and reserpine
a group treated with a reference product: we chose imipramine
a treated group that receives the product being tested in a dosage of 1/10 of the LD50.
The products being tested are administered intraperitoneally 30 minutes before the intraperitoneal injection of reserpine in a dosage of 5 mg/kg, so as to study their activity as a function of time.
The degree of ptosis for each eye and for each animal is observed every 30 minutes for 4 to 5 hours, according to RUBIN's scoring system (RUBIN et al., J. Pharm. Exp. Therap. 1957, 120, 125-136). The activity of the product is determined by comparing the result obtained with the treated control group. The inhibition of blepharospasm is recorded from 0 to +++.

A short description of series [2]: Toxicity: LD50 in mice by the intraperitoneal route (log-probits method of Miller and Tainter). The settings on record: mouse, in vivo. The procedure: The LD50 of the products was measured in mice by the intraperitoneal route according to the "log-probits" method of Miller and Tainter (Proc. Soc. Exptl. Biol. Med. 1944; 57, 261-264).

The structures appear in SMILES notation.

Turning to `COc1ccc(C=CC(O)CN2CCOCC2)cc1` (stereo not drawn) [Example 1, 1-(p-methoxyphenyl)-4-morpholino-1-buten-3-ol], the “Blepharospasm (inhibition of reserpine-induced blepharospasm)” value in series [1] is on record as “+++ (inhibition >45%)”. The compound also returned an LD50 in series [2] (mice, IP) of 500 mg/kg.
Turning to `OC(C=Cc1ccc(Cl)cc1)CN1CCOCC1` (stereo not drawn) [Example 2], the “Blepharospasm (inhibition of reserpine-induced blepharospasm)” value in series [1] is listed as “+++ (inhibition >45%)”. The compound also had an LD50 in series [2] (ip) of 400 mg/kg.
As for `OC(C=Cc1ccc(F)cc1)CN1CCOCC1` (stereo not drawn) [Example 3], the “Blepharospasm (inhibition of reserpine-induced blepharospasm)” value in series [1] is “++ (inhibition 26-45%)”. Moreover, the LD50 in series [2] (ip) was 800 mg/kg.
For `Oc1ccc(C=CC(O)CN2CCOCC2)cc1` (stereo not drawn) [Example 4] the same measures were “++ (inhibition 26-45%)” and 650 mg/kg.
For `C#CCOc1ccc(C=CC(O)CN2CCOCC2)cc1` (stereo not drawn) [Example 5] the same measures were “++ (inhibition 26-45%)” and 400 mg/kg.
For `C=CCOc1ccc(C=CC(O)CN2CCOCC2)cc1` (stereo not drawn) [Example 6] the same measures were “++ (inhibition 26-45%)” and 300 mg/kg.

The LD50 is the dose expected to kill half of the subjects tested. A higher LD50 goes with a less toxic substance.
